Measurements from US6620403B2, “In vivo chemosensitivity screen for human tumors” (priority 2000, dated 2003).
Values joined by “and” are separate entries in the source; they are usually repeats but may differ in a detail not shown here. Identical values can stand only once.

Experiments:
NSCLC = details: single agent, cited from earlier work
[1] = tested on: human NSCLC heterotransplants; assay: Paclitaxel treatment and tumor response of human NSCLC heterotransplants grown subcutaneously in nude mice; assay type: in vivo
Procedure: The in vivo sensitivity to paclitaxel was studied in 34 successfully grown heterotransplants. The paclitaxel was intravenously administered to each mouse at a dosage rate of 60 mg/kg every 3 weeks. Treatment was initiated when the tumors reached a size of about 5 mm in diameter and strict standard clinical criteria (>50% tumor shrinkage) were used to define the tumor response. The heterotransplants were morphologically very similar to the original tumors. The response rate to paclitaxel was 21% (95% Cl 9-38%) which is equivalent to that reported in Phase II studies in patients with advanced NSCLC treated with paclitaxel alone. Tumor heterotransplants are thus proposed as relevant models to evaluate new potential anti-tumor agents for treatment of different cancers and to predict clinical response in individual patients. It is noted that the type of tumor utilized for evaluating chemosensitivity to anti-tumor agents comprises a range of cancers including, but not limited to, colon, head and neck, brain, melanoma, sarcoma, breast, ovarian, prostate, kidney and stomach cancers.
The fresh tumor samples were cut into 2-3 mm^3 pieces in sterile saline. Three or four pieces of non-necrotic tissue were injected subcutaneously into the lower back and anterior chest of 6 to 8 week old female Nu/Nu mice using a biomedical stainless steel implant needle and maintained under standardized conventional conditions. Animals transplanted with NSCLC tumors were checked for tumor growth over a 36 week period. Tumor formation measuring at least 5 mm in diameter was considered a positive take. Tumor formation was confirmed histologically in all cases. Temporary growth was defined as tumor formation followed by spontaneous regression before reaching a diameter of 5 mm. All other incidences were considered no growth.
The therapeutic experiments were designed as a standard Phase II clinical study with a target response rate of 20%, the only difference being that the tumor response was assessed as the average of two animals rather than in a single subject as in the case of a human Phase II trial.
The tumor grown after implantation from human to mouse was resected and cut into pieces following the same procedure used for the original tumor sample as previously described above, and transplanted subcutaneously into several animals. Tumors from the first mouse to mouse passage were allowed to grow until reaching 5 mm in diameter, at which time the animals were split into two groups: 1) control group—no treatment; and 2) treated group. The treated group was administered 60 mg/kg paclitaxel intravenously as a bolus in the tail vein. Tumor measurements were performed twice a week and the tumor volume was calculated using the formula, a×b^2/2 (a=longest diameter and b=shortest diameter). Partial tumor response was defined as an average reduction in the tumor volume of at least 50% in the animals of the treated group compared to the tumor volume measured in animals of the control group. Complete tumor response was defined as complete disappearance of the palpable tumor in both animals of the […].

[2] = tested on: human NSCLC heterotransplants; assay: as above; assay type: in vivo; remark: listed apart in the source
[3] = First mouse to mouse passage, after second dose (day 21), 16 heterotransplants, number of responses (%)

CC(=O)O[C@H]1C(=O)[C@@]2(C)[C@H]([C@H](OC(=O)c3ccccc3)[C@]3(O)C[C@H](OC(=O)[C@H](O)[C@@H](NC(=O)c4ccccc4)c4ccccc4)C(C)=C1C3(C)C)[C@]1(OC(C)=O)CO[C@@H]1C[C@@H]2O [paclitaxel]
response rate in the individual Phase II studies (NSCLC; each of four Phase II studies, previously untreated NSCLC patients): 10% and 21% and 24% and 38%
reported overall response rate (NSCLC; four Phase II studies, total of 160 previously untreated NSCLC patients): 24%
non-responders to one dose achieving a partial response after the second dose ([1]; 12 heterotransplants that did not respond with one dose): None
partial responses after one dose ([1]; 16 heterotransplants given two doses, 4/16, 95% CI 7%-52%): 25%
partial responses converted into complete response after two doses ([1]; 16 heterotransplants, second dose on day 21, number out of 4 partial responses): Three
effect of second dose on overall response rate ([1]; 16 heterotransplants, second dose on day 21 versus single dose): did not change the overall response rate
response rate ([1]; 21 heterotransplants, first mouse to mouse passage, 95% CI 8%-47%): 24%
overall response rate ([1]; 34 heterotransplants, first mouse to mouse passage, one single dose 60 mg/kg i.v., 95% CI 9-38%): 21%
Tumor Response/(%) Complete ([1]; Adenocarcinoma, first mouse to mouse passage, 11 heterotransplants, single dose 60 mg/kg i.v.): 0
Tumor Response/(%) Partial ([1]; Adenocarcinoma, first mouse to mouse passage, 11 heterotransplants, single dose 60 mg/kg i.v., number of responses (%)): 1 (9%)
Tumor Response/(%) Complete ([1]; First mouse to mouse passage, after first dose, 16 heterotransplants): 0
Tumor Response/(%) Partial ([1]; First mouse to mouse passage, after first dose, 16 heterotransplants, number of responses (%)): 4 (24%)
Tumor Response/(%) Complete [1, 3]: 3 (18%)
Tumor Response/(%) Partial [1, 3]: 1 (6%)
Tumor Response/(%) Complete ([1]; First passage, 21 heterotransplants tested on both first and second mouse to mouse passages): 0
Tumor Response/(%) Partial ([1]; First passage, 21 heterotransplants tested on both first and second mouse to mouse passages, number of responses (%)): 5 (24%)
Tumor Response/(%) Partial ([1]; Neuroendocrine carcinoma, first mouse to mouse passage, 1 heterotransplant, single dose 60 mg/kg i.v., number of responses): 1
Tumor Response/(%) Complete ([1]; Second passage, 21 heterotransplants tested on both first and second mouse to mouse passages): 0
Tumor Response/(%) Complete ([1]; Squamous carcinoma, first mouse to mouse passage, 20 heterotransplants, single dose 60 mg/kg i.v.): 0
Tumor Response/(%) Partial ([1]; Squamous carcinoma, first mouse to mouse passage, 20 heterotransplants, single dose 60 mg/kg i.v., number of responses (%)): 4 (20%)
Tumor Response/(%) Complete ([1]; TOTAL, first mouse to mouse passage, 34 heterotransplants, single dose 60 mg/kg i.v., number of responses (%)): 0 (0%)
Tumor Response/(%) Partial ([1]; TOTAL, first mouse to mouse passage, 34 heterotransplants, single dose 60 mg/kg i.v., number of responses (%), 60 mg/kg): 7
Tumor Response/(%) Partial ([1]; TOTAL, first mouse to mouse passage, 34 heterotransplants, single dose 60 mg/kg i.v., number of responses (%), listed as Paclitaxel, 60 mg/kg): 7 (21%)
Tumor Response/(%) Partial ([1]; Undifferentiated carcinoma, first mouse to mouse passage, 2 heterotransplants, single dose 60 mg/kg i.v., number of responses): 1
response rate ([2]; 21 heterotransplants, second mouse to mouse passage, 95% CI 11%-52%): 29%
Tumor Response/(%) Partial ([2]; Second passage, 21 heterotransplants tested on both first and second mouse to mouse passages, number of responses (%)): 6 (29%)
